Experimental data taken from the NIST ThermoML archive (doi:10.1021/je100552a).
Numbers after ± are expanded uncertainties.

Columns and labels:
[1] = refractive index (Na D-line) (dimensionless); xn = mol fraction of the nth substance listed; conditions: 101 kPa, Liquid, Standard Abbe refractometry
[2] = xn = mol fraction of the nth substance listed; conditions: 101 kPa, Liquid; for viscosity: Capillary tube (Ostwald / Ubbelohde) method

Brc1ccccc1 [bromobenzene] + ClCCCl
Conditions | refractive index, 298.15 K | refractive index, 303.15 K | refractive index, 308.15 K | refractive index, 313.15 K | viscosity, 298.15 K [mPa·s] | viscosity, 303.15 K [mPa·s] | viscosity, 308.15 K [mPa·s] | viscosity, 313.15 K [mPa·s]
[1], x2 = 0.1014 | 1.5479 ± 0.0005 | 1.5439 ± 0.0005 | 1.5412 ± 0.0005 | 1.5372 ± 0.0005 | – | – | – | –
[1], x2 = 0.2002 | 1.5398 ± 0.0005 | 1.5355 ± 0.0005 | 1.5321 ± 0.0005 | 1.5279 ± 0.0005 | – | – | – | –
[1], x2 = 0.3004 | 1.5313 ± 0.0005 | 1.5266 ± 0.0005 | 1.5227 ± 0.0005 | 1.5182 ± 0.0005 | – | – | – | –
[1], x2 = 0.3999 | 1.5218 ± 0.0005 | 1.517 ± 0.0005 | 1.5128 ± 0.0005 | 1.5079 ± 0.0005 | – | – | – | –
[1], x2 = 0.5008 | 1.5107 ± 0.0005 | 1.506 ± 0.0005 | 1.5015 ± 0.0005 | 1.4967 ± 0.0005 | – | – | – | –
[1], x2 = 0.6001 | 1.4984 ± 0.0005 | 1.494 ± 0.0005 | 1.4893 ± 0.0005 | 1.4849 ± 0.0005 | – | – | – | –
[1], x2 = 0.6999 | 1.4847 ± 0.0005 | 1.4808 ± 0.0005 | 1.4761 ± 0.0005 | 1.4722 ± 0.0005 | – | – | – | –
[1], x2 = 0.7995 | 1.4704 ± 0.0005 | 1.4671 ± 0.0005 | 1.4622 ± 0.0005 | 1.459 ± 0.0005 | – | – | – | –
[1], x2 = 0.8998 | 1.4559 ± 0.0005 | 1.4528 ± 0.0005 | 1.4479 ± 0.0005 | 1.4452 ± 0.0005 | – | – | – | –
[2], x2 = 0.1014 | – | – | – | – | 1.041 ± 0.0082 | 0.9749 ± 0.0078 | 0.9162 ± 0.0073 | 0.8463 ± 0.0068
[2], x2 = 0.2002 | – | – | – | – | 1.004 ± 0.008 | 0.9388 ± 0.0075 | 0.8809 ± 0.0071 | 0.8155 ± 0.0066
[2], x2 = 0.3004 | – | – | – | – | 0.9677 ± 0.0077 | 0.904 ± 0.0072 | 0.8474 ± 0.0068 | 0.787 ± 0.0064
[2], x2 = 0.3999 | – | – | – | – | 0.9348 ± 0.0075 | 0.8714 ± 0.007 | 0.815 ± 0.0066 | 0.7607 ± 0.0062
[2], x2 = 0.5008 | – | – | – | – | 0.9036 ± 0.0072 | 0.8409 ± 0.0068 | 0.7839 ± 0.0064 | 0.7355 ± 0.006
[2], x2 = 0.6001 | – | – | – | – | 0.8752 ± 0.007 | 0.8141 ± 0.0066 | 0.7583 ± 0.0062 | 0.712 ± 0.0058
[2], x2 = 0.6999 | – | – | – | – | 0.8496 ± 0.0068 | 0.7886 ± 0.0064 | 0.7321 ± 0.006 | 0.6917 ± 0.0057
[2], x2 = 0.7995 | – | – | – | – | 0.8268 ± 0.0067 | 0.7646 ± 0.0062 | 0.711 ± 0.0058 | 0.6728 ± 0.0055
[2], x2 = 0.8998 | – | – | – | – | 0.8058 ± 0.0065 | 0.7445 ± 0.0061 | 0.6904 ± 0.0057 | 0.6569 ± 0.0054

mass density [kg/m3], [2], Vibrating tube method
Conditions | x2 = 0.1014 | x2 = 0.2002 | x2 = 0.3004 | x2 = 0.3999 | x2 = 0.5008 | x2 = 0.6001 | x2 = 0.6999 | x2 = 0.7995 | x2 = 0.8998
298.15 K | 1469.57 ± 0.64 | 1449.41 ± 0.62 | 1428.09 ± 0.6 | 1406.01 ± 0.58 | 1382.5 ± 0.56 | 1358.18 ± 0.54 | 1332.44 ± 0.52 | 1305.43 ± 0.49 | 1276.72 ± 0.47
303.15 K | 1461.55 ± 0.64 | 1441.65 ± 0.62 | 1420.51 ± 0.6 | 1398.59 ± 0.58 | 1375.26 ± 0.55 | 1351.21 ± 0.53 | 1325.77 ± 0.51 | 1299.12 ± 0.49 | 1270.73 ± 0.46
308.15 K | 1455.77 ± 0.63 | 1435.38 ± 0.61 | 1413.75 ± 0.59 | 1391.37 ± 0.57 | 1367.54 ± 0.55 | 1342.97 ± 0.52 | 1317.02 ± 0.5 | 1289.84 ± 0.48 | 1260.96 ± 0.45
313.15 K | 1447.63 ± 0.62 | 1427.53 ± 0.6 | 1406.26 ± 0.58 | 1384.19 ± 0.56 | 1360.71 ± 0.54 | 1336.5 ± 0.52 | 1310.92 ± 0.5 | 1284.14 ± 0.47 | 1255.65 ± 0.45

Clc1ccccc1 [chlorobenzene] + ClCCCl
Conditions | mass density, [2] [kg/m3] | refractive index, [1] | viscosity, [2] [mPa·s]
298.15 K, x2 = 0.1022 | 1111.56 ± 0.69 | 1.5149 ± 0.0005 | 0.7456 ± 0.0061
298.15 K, x2 = 0.2015 | 1123.05 ± 0.72 | 1.508 ± 0.0005 | 0.7387 ± 0.006
298.15 K, x2 = 0.3013 | 1135.29 ± 0.76 | 1.5012 ± 0.0005 | 0.7351 ± 0.006
298.15 K, x2 = 0.4039 | 1148.64 ± 0.8 | 1.4935 ± 0.0005 | 0.7364 ± 0.006
298.15 K, x2 = 0.4999 | 1161.91 ± 0.83 | 1.486 ± 0.0005 | 0.7372 ± 0.006
298.15 K, x2 = 0.5977 | 1176.36 ± 0.87 | 1.4781 ± 0.0005 | 0.741 ± 0.006
298.15 K, x2 = 0.6986 | 1192.24 ± 0.92 | 1.4696 ± 0.0005 | 0.7445 ± 0.0061
298.15 K, x2 = 0.8 | 1209.3 ± 0.97 | 1.4607 ± 0.0005 | 0.7536 ± 0.0061
298.15 K, x2 = 0.899 | 1227.12 ± 1 | 1.4516 ± 0.0005 | 0.7659 ± 0.0062
303.15 K, x2 = 0.1022 | 1106.04 ± 0.68 | 1.512 ± 0.0005 | 0.7146 ± 0.0059
303.15 K, x2 = 0.2015 | 1117.48 ± 0.71 | 1.5052 ± 0.0005 | 0.7049 ± 0.0058
303.15 K, x2 = 0.3013 | 1129.68 ± 0.74 | 1.4983 ± 0.0005 | 0.6991 ± 0.0057
303.15 K, x2 = 0.4039 | 1142.96 ± 0.78 | 1.4908 ± 0.0005 | 0.6969 ± 0.0057
303.15 K, x2 = 0.4999 | 1156.2 ± 0.82 | 1.4832 ± 0.0005 | 0.6963 ± 0.0057
303.15 K, x2 = 0.5977 | 1170.62 ± 0.86 | 1.4752 ± 0.0005 | 0.6973 ± 0.0057
303.15 K, x2 = 0.6986 | 1186.46 ± 0.9 | 1.4666 ± 0.0005 | 0.6975 ± 0.0057
303.15 K, x2 = 0.8 | 1203.48 ± 0.95 | 1.4576 ± 0.0005 | 0.7009 ± 0.0058
303.15 K, x2 = 0.899 | 1221.28 ± 1 | 1.4484 ± 0.0005 | 0.71 ± 0.0058
308.15 K, x2 = 0.1022 | 1100.15 ± 0.66 | 1.509 ± 0.0005 | 0.6659 ± 0.0055
308.15 K, x2 = 0.2015 | 1111.22 ± 0.69 | 1.5022 ± 0.0005 | 0.6595 ± 0.0055
308.15 K, x2 = 0.3013 | 1123.02 ± 0.72 | 1.4951 ± 0.0005 | 0.6542 ± 0.0054
308.15 K, x2 = 0.4039 | 1135.91 ± 0.76 | 1.4873 ± 0.0005 | 0.6505 ± 0.0054
308.15 K, x2 = 0.4999 | 1148.68 ± 0.8 | 1.4797 ± 0.0005 | 0.6506 ± 0.0054
308.15 K, x2 = 0.5977 | 1162.62 ± 0.84 | 1.4715 ± 0.0005 | 0.65 ± 0.0054
308.15 K, x2 = 0.6986 | 1177.92 ± 0.88 | 1.4626 ± 0.0005 | 0.6493 ± 0.0054
308.15 K, x2 = 0.8 | 1194.4 ± 0.93 | 1.4534 ± 0.0005 | 0.653 ± 0.0054
308.15 K, x2 = 0.899 | 1211.62 ± 0.97 | 1.444 ± 0.0005 | 0.6574 ± 0.0054
313.15 K, x2 = 0.1022 | 1094.68 ± 0.65 | 1.5049 ± 0.0005 | 0.619 ± 0.0052
313.15 K, x2 = 0.2015 | 1105.79 ± 0.68 | 1.4983 ± 0.0005 | 0.6151 ± 0.0051
313.15 K, x2 = 0.3013 | 1117.62 ± 0.71 | 1.4915 ± 0.0005 | 0.6143 ± 0.0051
313.15 K, x2 = 0.4039 | 1130.48 ± 0.75 | 1.4838 ± 0.0005 | 0.6119 ± 0.0051
313.15 K, x2 = 0.4999 | 1143.37 ± 0.78 | 1.4763 ± 0.0005 | 0.6125 ± 0.0051
313.15 K, x2 = 0.5977 | 1157.36 ± 0.82 | 1.4682 ± 0.0005 | 0.6158 ± 0.0051
313.15 K, x2 = 0.6986 | 1172.73 ± 0.86 | 1.4595 ± 0.0005 | 0.6191 ± 0.0052
313.15 K, x2 = 0.8 | 1189.28 ± 0.91 | 1.4503 ± 0.0005 | 0.6241 ± 0.0052
313.15 K, x2 = 0.899 | 1206.59 ± 0.96 | 1.441 ± 0.0005 | 0.6314 ± 0.0052
